Results on one substance are retold here after US11591596B2, “Compounds and compositions including phosphorothioated oligodeoxynucleotide, and methods of use thereof” (City of Hope, priority 2015, dated 2023).

One experiment deals with miR-126. Kind of experiment: miR-126 expression in K562 and MV4-11 cells with miR-126 inhibitors or mimics. The class given is cell-based. As to conditions: 500 nM, 24 hours. The method, then: FIGS. 26A-26E. Effective knockdown of miR-126 with miR-126 inhibitors conjugated with CpG, GpC and PS, and effective over-expression with miR-126 mimics in K562 and MV4-11 cells. K562 and MV4-11 cells were treated with miR-126 inhibitors conjugated with CpG, GpC, PS (FIGS. 26A-26B) or miR-126 mimics (615, 616 and 617) (FIGS. 26C-26D) (500 nM) for 24 hours, and miR-126 expression was measured in these cells. […] FIG. 26E) Tabulation of sequence set forth herein.
Effective knockdown of miR-126 with miR-126 inhibitors conjugated with CpG, GpC and PS, and effective over-expression with miR-126 mimics in K562 and MV4-11 cells. K562 and MV4-11 cells were treated with miR-126 inhibitors conjugated with CpG, GpC, PS (FIGS. 26A-26B) or miR-126 mimics (615, 616 and 617) (FIGS. 26C-26D) (500 nM) for 24 hours, and miR-126 expression was measured in these cells.

The subject of experiment [1] is Mouse CML leukemia stem cells (LSC, Lin-Sca-1+c-kit+Fit3-CD150+CD48-). Put plainly: Apoptosis and cell growth of mouse CML leukemia stem cells. The class given is cell-based. As to conditions: combined with NIL, compared with CpG-SCR+NIL. The method, then:
Mouse CML leukemia stem cells (LSC, Lin-Sca-1+c-kit+Fit3-CD150+CD48-) were sorted and treated with CpG-anti-miR-126 inhibitor or CpG-SCR (500 nM) for 48 hours, then furthered treated with miR126 inhibitor+NIL or SCR+NIL for 72 hours, then apoptosis and cell growth were measured.

For experiment [2], the system named is long term hematopoietic stem cells (LTHSC, Lin-Sca-1+c-kit+Fit3-CD150+CD48−) from normal and CML mouse. Put plainly: Cell cycling of murine LTHSC by EDU/DAPi staining. The class given is cell-based. Particulars: 500 nM, compared with the CpG-Scr. The protocol: Normal (NL) and CML murine LTHSC (Lin-Sca-1+Kit+Fit3− CD150+CD48− cells) were sorted and then treated with 500 nm CpG-miR126 inhibitor or CpG-SCR for 72 hours, then cell cycling was analyzed by EDU/DAPi staining.

Experiment [3] has as its system CML cells in SCLtTA/BCR-ABL mice. Kind of experiment: In vivo treatment of SCLtTA/BCR-ABL mice. On the set-up: species or system mouse. Particulars: 3 weeks, compared with NIL+SCR. The protocol: SCLtTA/BCR-ABL mice were treated with CpG-miR-126 inhibitor (5 mg/kg, every other day, iv injection), SCR (5 mg/kg, every other day, iv injection), NIL (50 mg/kg, daily by garage)+SCR, NIL+miR-126 inhibitor for 3 weeks and then the remaining CML cells in the PB (FIG. 13A), BM (FIG. 13C) and spleen (FIG. 13D) were analyzed.
FIGS. 14A-D are scatter plots showing reduced CML LSK and LSC observed in the bone marrow (BM) (FIGS. 14A, 14C) and spleen (FIGS. 14B, 14D) of the mice treated with NIL+miR126 inhibitor compared with the mice treated with NIL+SCR. SCLtTA/BCR-ABL mice were treated with CpG-miR-126 inhibitor, SCR, NIL+SCR, NIL+miR-126 inhibitor for 3 weeks and then the remaining CML LSK primitive cells and LSC in the BM and spleen were analyzed.
SCLtTA/BCR-ABL mice were treated with CpG-miR-126 inhibitor (5 mg/kg, every other day, iv injection), SCR (5 mg/kg, every other day, iv injection), NIL (50 mg/kg, daily by garage)+SCR, NIL+miR-126 inhibitor for 3 weeks and then the remaining CML cells in the PB, BM and spleen were analyzed. […] The effect of CpG-anti-miR-126 on growth of primary AML LSC and therapeutic response in vivo is still ongoing. These observations indicate that blocking of miR-126 by a myeloid cell-specific CpG-anti-miR-126 ODN inhibitor, among other compounds of the present disclosure, is very effective, and therefore represents a novel therapeutic method targeting miRNA in leukemia and other types of cancer disclosed herein.

[4] abbreviates: 5 mg/kg every other day iv + NIL 50 mg/kg daily.

Turning to “5′ G*G*T GCA TCG ATG CAGG*G*G* G*G (SEQ ID NO: 1) xxxxx mCmGmC mAmUmU mAmUmU mAmCmU mCmAmC mGmGmU mAmCmG mA (SEQ ID NO: 17) 3′ [CpG-anti-miR126]”, in the experiment on miR-126, the “miR-126 expression (knockdown by inhibitors)” value is “very effective in reducing miR-126”. For the same substance, in experiment [1], the “apoptosis of LSC” value was “significantly increased apoptosis” and the “cell growth of LSC” value is listed as “significant reduction of cell growth”. Moreover, in experiment [2], the cell-cycle entry entry is on record as “increased cell-cycle entry”. In addition, in experiment [3] (setting [4]), the “CML white blood cells in the PB” value is recorded as “Reduced CML white blood cells” and the spleen weight result is “Reduced spleen weight”. Further, in experiment [3] (with NIL), the “CML LSK in the BM and spleen” value is reported as “Reduced”; the “CML LTHSC in the BM and spleen” value was “Reduced”; the “CML cells in the BM and spleen” value is reported as “Reduced”.
